This note sets out measurements from ChEMBL document CHEMBL1158262, “Novel beta-methoxyacrylates of the 9-methoxystrobilurin and oudesmansin classes produced by the basidiomycete Favolaschia pustulosa” (J Nat Prod, 1996).

pIC50: −log10 of the molar value. In brackets after ≈: the same amount, converted by molar mass. Activity calls are given as the source filed them. The rule behind the calls is not given here.

One assay relates to Bacillus subtilis. As to the kind of experiment: Antibacterial activity against Bacillus subtilis after 18 hrs by serial dilution method. The class given is functional.
In assay [1] the test system is JIYOYE. As to the kind of experiment: Cytotoxicity against human Jijoye cells after 2 days by XTT assay. The class given is functional, cell-based.
Another assay has as its system Candida albicans. As to the kind of experiment: Antifungal activity against Candida albicans after 18 hrs by serial dilution method. The class given is functional.
The subject of assay [2] is JIYOYE. As to the kind of experiment: Cytotoxicity against human Jijoye cells after 5 days by XTT assay. It counts as functional, cell-based. The conditions noted are these: 120 h. (In general: Formazan colour is commonly taken as a measure of viable cells.)

Regarding `C=CC(C)(C)OC(C)(C)C1COc2ccc(/C=C/C(OC)=C(C)\C(=C/OC)C(=O)OC)cc2O1` (stereo not given), the values for the MIC with Bacillus subtilis and against Candida albicans were 0.9 µM (≈ 0.425 µg/mL) and 6 µM (≈ 2.84 µg/mL), respectively. Further, in the assay on JIYOYE [1], the result was inactive. Further, the pIC50 (commonly the IC50 on a negative log10 scale, so that one unit is a factor of ten) in the assay with JIYOYE [2] was 8.74. Moreover, in the assay with JIYOYE [2] (read-out: LC50 (the source's name)), the CC50 amounted to 1.8 nM.
